The values that follow come from ChEMBL document CHEMBL1153791, “Acylphloroglucinol, biyouyanagiol, biyouyanagin B, and related spiro-lactones from Hypericum chinense” (J Nat Prod, 2009).

Holding throughout (format): functional, cell-based
The nature of assay [1]: Cytotoxicity against human multidrug resistant KB-C2 cells after 48 hrs by MTT assay. The following applies: KB-C2, 48 h. On the technique in general: Formazan colour is commonly taken as a measure of viable cells.
A further assay concerns COLO 205. In words: Cytotoxicity against human COLO205 cells after 48 hrs by MTT assay. The following applies: COLO 205, 48 h.
The next assay has as its system KB. The assay is described as follows: Cytotoxicity against human KB cells after 48 hrs by MTT assay.
Assay [2] is described as follows: Cytotoxicity against human multidrug resistant KB-C2 cells after 48 hrs by MTT assay in the presence of colchicine. Particulars: KB-C2, 48 h.
The subject of a further assay is MCF7. The assay is described as follows: Cytotoxicity against human MCF7 cells after 48 hrs by MTT assay. The following applies: MCF7, 48 h.
Assay [3] concerns K562. In words: Cytotoxicity against human K562 cells after 48 hrs by MTT assay. Particulars: K562, 48 h.
The subject of assay [4] is K562. The assay is described as follows: Cytotoxicity against human doxorubicin-resistant K562 cells after 48 hrs by MTT assay. The following applies: K562, 48 h.

Converted amounts (≈) assume the structure as drawn. Where only a bound is given, the exact number is not on record here.

One may read the IC50 as the concentration at which inhibition is half-maximal. Turning to `C=C[C@@]1(C)COC(=O)[C@]12O[C@]1(c3ccccc3)[C@H](C2=O)[C@H]2[C@H]([C@H](C)CCC=C(C)C)CC=C(C)[C@H]21` [BIYOUYANAGIN A], the IC50 in assay [1] came to 36.2 µg/mL (≈ 76.3 µM); in the assay with COLO 205 it was 26.9 µg/mL (≈ 56.7 µM); in the assay with KB, 38.8 µg/mL (≈ 81.7 µM); in assay [2], 16.8 µg/mL; in the assay on MCF7, 27.1 µg/mL (≈ 57.1 µM); with K562 [3], 31.1 µg/mL (≈ 65.5 µM). Also, the IC50 with K562 [4] worked out at 16.6 µg/mL (≈ 35 µM).

Consider `C=C[C@@]1(C)COC(=O)C1(O)C(=O)/C=C(\O)c1ccccc1` (some centres undefined), for which the half-maximal inhibitory concentration (IC50) in assay [1] is > 100 µg/mL; in the assay with COLO 205 it was 79 µg/mL (≈ 274 µM); in the assay on KB, > 100 µg/mL; in assay [2] it was 53.1 µg/mL; in the assay on MCF7 it was 62.1 µg/mL (≈ 215 µM); in the assay on K562 [3], > 100 µg/mL. Also, in the assay with K562 [4], inhibition was half-maximal at 33.7 µg/mL (≈ 117 µM) (IC50).

As to `C=C[C@@]1(C)COC(=O)C1C(=O)/C=C(\O)c1ccccc1` (some centres undefined) [HYPERLACTONE D], the half-maximal inhibitory concentration (IC50) in assay [1] turned out to be 22.3 µg/mL (≈ 81.9 µM); in the assay on COLO 205, 37.5 µg/mL (≈ 138 µM); in the assay on KB, 61 µg/mL (≈ 224 µM); in assay [2] it was 24.6 µg/mL; in the assay on MCF7, 52.9 µg/mL (≈ 194 µM); with K562 [3] it was 47.8 µg/mL (≈ 176 µM). In the assay with K562 [4], this compound showed a half-inhibitory concentration (IC50) of 20 µg/mL (≈ 73.4 µM).

Regarding `C=C[C@@]1(C)COC(=O)[C@]12OC(c1ccccc1)=CC2=O` [HYPERLACTONE C], the IC50 is > 100 µg/mL in assay [1]; 58.5 µg/mL (≈ 216 µM) in the assay with COLO 205; > 100 µg/mL in the assay with KB; 51.8 µg/mL in assay [2]; 77.7 µg/mL (≈ 287 µM) in the assay on MCF7; > 100 µg/mL in the assay on K562 [3]. The compound also yielded an IC50 in the assay on K562 [4] of 32.8 µg/mL (≈ 121 µM).

As to `OC[C@H]1[C@@H](Cc2ccc3c(c2)OCO3)CO[C@@H]1c1ccc2c(c1)OCO2` [DIHYDROSESAMIN], the half-maximal inhibitory concentration (IC50) is > 100 µg/mL in assay [1]; 79 µg/mL (≈ 222 µM) in the assay on COLO 205; > 100 µg/mL in the assay with KB; 53.1 µg/mL in assay [2]; 62.1 µg/mL (≈ 174 µM) with MCF7; > 100 µg/mL with K562 [3]. For the same compound, in the assay on K562 [4], 33.7 µg/mL (≈ 94.6 µM) corresponded to half-maximal inhibition (IC50).

On to `COc1cccc2c1C(=O)c1c(O)c3c(c(O)c1C2=O)C[C@@](O)(C(C)=O)C[C@@H]3O[C@H]1C[C@H](N)[C@H](O)[C@H](C)O1` [DAUNORUBICIN], for which the IC50 was > 100 µg/mL in assay [1]; 0.5 µg/mL (≈ 0.948 µM) in the assay on COLO 205; 0.22 µg/mL (≈ 0.417 µM) in the assay with KB; 0.33 µg/mL (≈ 0.626 µM) with MCF7; 0.45 µg/mL (≈ 0.853 µM) in the assay with K562 [3]; 15.2 µg/mL (≈ 28.8 µM) in the assay on K562 [4].

On to `COc1cc(/C=C/C(=O)OC[C@H](Cc2ccc(O)c(OC)c2)[C@H](COC(=O)/C=C/c2ccc(O)c(OC)c2)Cc2ccc(O)c(OC)c2)ccc1O`, for which the half-inhibitory concentration (IC50) in assay [1] is 9.4 µg/mL (≈ 13.2 µM); in the assay on COLO 205, 5.2 µg/mL (≈ 7.28 µM); in the assay with KB, 14.1 µg/mL (≈ 19.7 µM); in assay [2] it was 4.5 µg/mL; with MCF7, 5.9 µg/mL (≈ 8.25 µM); with K562 [3], 17.3 µg/mL (≈ 24.2 µM). This compound displayed an IC50 with K562 [4] of 19.9 µg/mL (≈ 27.8 µM).

In the case of `COc1cc(/C=C/C(=O)OC[C@H](Cc2ccc(O)c(OC)c2)[C@H](CO)Cc2ccc(O)c(OC)c2)ccc1O` [HANULTARIN], the concentration for half-maximal inhibition (IC50) was 20.7 µg/mL (≈ 38.4 µM) in assay [1]; 16.8 µg/mL (≈ 31.2 µM) in the assay with COLO 205; 33.7 µg/mL (≈ 62.6 µM) with KB; 20.9 µg/mL in assay [2]; 18.9 µg/mL (≈ 35.1 µM) with MCF7; 35.2 µg/mL (≈ 65.4 µM) in the assay with K562 [3]. In addition, the IC50 in the assay with K562 [4] was 33.1 µg/mL (≈ 61.5 µM).

In the case of `COC(=O)[C@@]1(O)C(=O)[C@](C)(CC=C(C)C)C(=O)C12C[C@H]1[C@@H](CC[C@@]1(C)O)[C@@](C)(O)C2` (some centres undefined) [BIYOUYANAGIOL], the IC50 in assay [1] was > 100 µg/mL; with COLO 205, > 100 µg/mL; in the assay on KB, > 100 µg/mL; in assay [2], 47.8 µg/mL; with MCF7 it was > 100 µg/mL; with K562 [3], > 100 µg/mL. Further, the IC50 in the assay on K562 [4] was > 100 µg/mL.

Turning to `C=C[C@@]1(C)COC(=O)[C@]12OC([C@H](C)CC)=CC2=O` [HYPERLACTONE A], the IC50 in assay [1] was > 100 µg/mL; with COLO 205, > 100 µg/mL; in the assay on KB, > 100 µg/mL; in assay [2], 70.8 µg/mL; in the assay with MCF7 it was > 100 µg/mL; with K562 [3], > 100 µg/mL. Besides, in the assay with K562 [4], 47.1 µg/mL (≈ 188 µM) corresponded to half-maximal inhibition (IC50).
